# Reference: paper PMC7221592, “Synthesis and Molecular Modelling Studies of New 1,3-Diaryl-5-Oxo-Proline Derivatives as Endothelin Receptor Ligands” (Molecules, 2020)
# Square brackets hold non-standard residues; d marks the D form. Peptide text beside a SMILES is read from it.
# Biological target: T1, ETA receptor (ETAR) (Homo sapiens, UniProt P25101)
# T1 construct: gene EDNRA
# T1 sequence (P25101 21-427): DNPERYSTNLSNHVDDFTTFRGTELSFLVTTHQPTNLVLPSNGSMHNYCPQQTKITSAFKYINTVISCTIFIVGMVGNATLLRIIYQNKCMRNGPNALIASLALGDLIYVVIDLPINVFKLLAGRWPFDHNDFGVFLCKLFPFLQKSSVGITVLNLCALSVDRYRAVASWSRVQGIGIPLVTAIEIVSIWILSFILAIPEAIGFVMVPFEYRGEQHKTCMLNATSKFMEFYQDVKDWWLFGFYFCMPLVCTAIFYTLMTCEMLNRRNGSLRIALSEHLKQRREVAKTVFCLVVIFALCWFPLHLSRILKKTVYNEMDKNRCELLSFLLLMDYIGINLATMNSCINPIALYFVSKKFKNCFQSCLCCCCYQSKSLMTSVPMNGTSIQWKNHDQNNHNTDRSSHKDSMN
# Experiment: […]ET-1 radioligand displacement, recombinant human ETA in CHO-K1 cells
# Format: cell-based
# Settings: read-out: ETAh 10^-5 M ^a
row,SMILES,Ki [µM]
1,"COc1ccc(CN2C(=O)C[C@H](c3ccc4c(c3)OCO4)[C@H]2C(=O)O)cc1 (racemic) [31h, (±)-trans 3-(1,3-Benzodioxol-5-yl)-1-[(4-methoxyphenyl)methyl]-5-oxo-proline]",3.3 ± 1.1
2,CC(C)C[C@@H]1NC(=O)[C@@H](C(C)C)NC(=O)[C@@H]2CCCN2C(=O)[C@@H](CC(=O)O)NC(=O)[C@@H](Cc2c[nH]c3ccccc23)NC1=O [BQ-123] (cyclo(L[dW][dD]P[dV])),0.0054 ± 0.0008
